# Organism: Rattus norvegicus
# Experiment: DrugMatrix - Regimen: Daily Repeat
# Type: toxicity, organism-based, Sprague-Dawley
# Design: regimen Daily Repeat, gender Male, age 6-8 weeks
# Details: in vivo, po, route oral GAVAGE, […]; for ABSOLUTE BASOPHIL / ABSOLUTE EOSINOPHIL / ABSOLUTE LYMPHOCYTE / ABSOLUTE MONOCYTE / ABSOLUTE SEGMENTED NEUTROPHIL / BASOPHIL / EOSINOPHIL / ERYTHROCYTE COUNT / HEMATOCRIT / HEMOGLOBIN / LEUKOCYTE COUNT / LYMPHOCYTE / MEAN CORPUSCULAR HEMOGLOBIN / MEAN CORPUSCULAR HEMOGLOBIN CONCENTRATION / MEAN CORPUSCULAR VOLUME / MONOCYTE / NEUTROPHIL / NUCLEATED RED BLOOD CELLS / PLATELET COUNT: tissue Blood; for ALANINE AMINOTRANSFERASE / ALBUMIN / ALKALINE PHOSPHATASE / ASPARTATE AMINOTRANSFERASE / BLOOD UREA NITROGEN / CARBON DIOXIDE / CHLORIDE / CHOLESTEROL / CREATINE PHOSPHOKINASE / CREATININE / GLUCOSE / LACTATE DEHYDROGENASE / LIPASE / PHOSPHORUS / POTASSIUM / SODIUM / TOTAL BILIRUBIN / TOTAL PROTEIN / URIC ACID: tissue Plasma
# [1] = 0 mg/kg, 72 h, dose level Control, time 3 day
# [2] = 0 mg/kg, 120 h, dose level Control, time 5 day
# [3] = 300 mg/kg, 72 h, dose level High, time 3 day
smiles,measurement,setting,value
CC(C)c1c(C(=O)Nc2ccccc2)c(-c2ccccc2)c(-c2ccc(F)cc2)n1CC[C@@H](O)C[C@@H](O)CC(=O)O [ATORVASTATIN],ABSOLUTE BASOPHIL,[1],0 CELLS/uL
same,ABSOLUTE EOSINOPHIL,[1],14 CELLS/uL
same,ABSOLUTE LYMPHOCYTE,[1],11144.67 CELLS/uL
same,ABSOLUTE MONOCYTE,[1],22.5 CELLS/uL
same,ABSOLUTE SEGMENTED NEUTROPHIL,[1],535.5 CELLS/uL
same,BASOPHIL,[1],0%
same,EOSINOPHIL,[1],0.17%
same,ERYTHROCYTE COUNT,[1],5.08 x10E6/uL
same,HEMATOCRIT,[1],32.32%
same,HEMOGLOBIN,[1],12.87 G/DL
same,LEUKOCYTE COUNT,[1],11.72 x10E3/uL
same,LYMPHOCYTE,[1],94.67%
same,MEAN CORPUSCULAR HEMOGLOBIN,[1],25.37 pg
same,MEAN CORPUSCULAR HEMOGLOBIN CONCENTRATION,[1],39.85 G/DL
same,MEAN CORPUSCULAR VOLUME,[1],63.58 fL
same,MONOCYTE,[1],0.17%
same,NEUTROPHIL,[1],5%
same,NUCLEATED RED BLOOD CELLS,[1],0 /100WBC
same,PLATELET COUNT,[1],1084 x10E3/uL
same,ALANINE AMINOTRANSFERASE,[1],67.5 u/L
same,ALBUMIN,[1],4.02 G/DL
same,ALKALINE PHOSPHATASE,[1],374.17 u/L
same,ASPARTATE AMINOTRANSFERASE,[1],83.5 u/L
same,BLOOD UREA NITROGEN,[1],14.5 mg/dL
same,CARBON DIOXIDE,[1],30 mmol/L
same,CHLORIDE,[1],100.5 MEQ/L
same,CHOLESTEROL,[1],71.33 mg/dL
same,CREATINE PHOSPHOKINASE,[1],268.33 u/L
same,CREATININE,[1],0.16 mg/dL
same,GLUCOSE,[1],170.5 mg/dL
same,LACTATE DEHYDROGENASE,[1],81.17 u/L
same,LIPASE,[1],16.67 u/L
same,PHOSPHORUS,[1],10.07 mg/dL
same,POTASSIUM,[1],5.03 MEQ/L
same,SODIUM,[1],142.92 MEQ/L
same,TOTAL BILIRUBIN,[1],0.17 mg/dL
same,TOTAL PROTEIN,[1],5.63 G/DL
same,URIC ACID,[1],0.5 mg/dL
same,ABSOLUTE BASOPHIL,[2],0 CELLS/uL
same,ABSOLUTE EOSINOPHIL,[2],37.5 CELLS/uL
same,ABSOLUTE LYMPHOCYTE,[2],8049.5 CELLS/uL
same,ABSOLUTE MONOCYTE,[2],82.83 CELLS/uL
same,ABSOLUTE SEGMENTED NEUTROPHIL,[2],646.83 CELLS/uL
same,BASOPHIL,[2],0%
same,EOSINOPHIL,[2],0.5%
same,ERYTHROCYTE COUNT,[2],5.36 x10E6/uL
same,HEMATOCRIT,[2],33.9%
same,HEMOGLOBIN,[2],13.02 G/DL
same,LEUKOCYTE COUNT,[2],8.82 x10E3/uL
same,LYMPHOCYTE,[2],90.17%
same,MEAN CORPUSCULAR HEMOGLOBIN,[2],24.32 pg
same,MEAN CORPUSCULAR HEMOGLOBIN CONCENTRATION,[2],38.42 G/DL
same,MEAN CORPUSCULAR VOLUME,[2],63.32 fL
same,MONOCYTE,[2],1.17%
same,NEUTROPHIL,[2],8.17%
same,NUCLEATED RED BLOOD CELLS,[2],0.17 /100WBC
same,PLATELET COUNT,[2],1231.5 x10E3/uL
same,ALANINE AMINOTRANSFERASE,[2],62 u/L
same,ALBUMIN,[2],3.97 G/DL
same,ALKALINE PHOSPHATASE,[2],303.67 u/L
same,ASPARTATE AMINOTRANSFERASE,[2],84.5 u/L
same,BLOOD UREA NITROGEN,[2],14.83 mg/dL
same,CARBON DIOXIDE,[2],31.83 mmol/L
same,CHLORIDE,[2],97 MEQ/L
same,CHOLESTEROL,[2],68.83 mg/dL
same,CREATINE PHOSPHOKINASE,[2],411.33 u/L
same,CREATININE,[2],0.16 mg/dL
same,GLUCOSE,[2],170.17 mg/dL
same,LACTATE DEHYDROGENASE,[2],88.5 u/L
same,LIPASE,[2],9.5 u/L
same,PHOSPHORUS,[2],9.98 mg/dL
same,POTASSIUM,[2],5.72 MEQ/L
same,SODIUM,[2],141.62 MEQ/L
same,TOTAL BILIRUBIN,[2],0.1 mg/dL
same,TOTAL PROTEIN,[2],5.67 G/DL
same,URIC ACID,[2],0.52 mg/dL
same,ABSOLUTE BASOPHIL,[3],0 CELLS/uL
same,ABSOLUTE EOSINOPHIL,[3],88 CELLS/uL
same,ABSOLUTE LYMPHOCYTE,[3],7063.33 CELLS/uL
same,ABSOLUTE MONOCYTE,[3],150.67 CELLS/uL
same,ABSOLUTE SEGMENTED NEUTROPHIL,[3],964.67 CELLS/uL
same,BASOPHIL,[3],0%
same,EOSINOPHIL,[3],1%
same,ERYTHROCYTE COUNT,[3],5.19 x10E6/uL
same,HEMATOCRIT,[3],32.23%
same,HEMOGLOBIN,[3],12.9 G/DL
same,LEUKOCYTE COUNT,[3],8.27 x10E3/uL
same,LYMPHOCYTE,[3],86%
same,MEAN CORPUSCULAR HEMOGLOBIN,[3],24.93 pg
same,MEAN CORPUSCULAR HEMOGLOBIN CONCENTRATION,[3],40.13 G/DL
same,MEAN CORPUSCULAR VOLUME,[3],62.1 fL
same,MONOCYTE,[3],1.67%
same,NEUTROPHIL,[3],11.33%
same,NUCLEATED RED BLOOD CELLS,[3],0 /100WBC
same,PLATELET COUNT,[3],924.33 x10E3/uL
same,ALANINE AMINOTRANSFERASE,[3],226.67 u/L
same,ALBUMIN,[3],4.2 G/DL
same,ALKALINE PHOSPHATASE,[3],729 u/L
same,ASPARTATE AMINOTRANSFERASE,[3],518.67 u/L
same,BLOOD UREA NITROGEN,[3],15 mg/dL
same,CARBON DIOXIDE,[3],26.33 mmol/L
same,CHLORIDE,[3],103 MEQ/L
same,CHOLESTEROL,[3],70.67 mg/dL
same,CREATINE PHOSPHOKINASE,[3],416.67 u/L
same,CREATININE,[3],0.17 mg/dL
same,GLUCOSE,[3],160 mg/dL
same,LACTATE DEHYDROGENASE,[3],414.67 u/L
same,LIPASE,[3],12 u/L
same,PHOSPHORUS,[3],10 mg/dL
same,POTASSIUM,[3],4.92 MEQ/L
same,SODIUM,[3],144.23 MEQ/L
same,TOTAL BILIRUBIN,[3],0.37 mg/dL
same,TOTAL PROTEIN,[3],5.67 G/DL
same,URIC ACID,[3],0.67 mg/dL

# Source: ChEMBL document CHEMBL3885881, “DrugMatrix”
